# According to patent US10358449B2, “Xanthine derivative” (priority 2015, dated 2019):
# Read-outs that look alike come from different tables or passages of the source. Marks after values point to notes of the source that are not given here.
# How the values were obtained:
# [1] = biological target: humanized recombinant DPP-IV (Homo sapiens (Human), UniProt P27487); experiment: DPP-IV activity inhibition test in vitro (DPPIV-Glo luminescence); assay type: biochemical
# Description: (1) DPP-IV Activity Inhibition Tests In Vitro
# DPP-IV could hydrolyze Gly-Pro-Aminoluciferin at room temperature to generate Aminoluciferin, which could produce “glow type” luminescent signals in a luciferase reaction system provided by a DPPIV-Glo™ protease test kit, and the strength of the luminescent signals was in direct proportion to the enzyme activity of DPP-IV.
# 2.1 humanized recombinant DPP-IV: SIGMA product, article number D3446-10UG.
# 2.2 DPPIV-Glo™ protease detection kit: Promega product, article number G8351.
# 3.2 Diluting dipeptidyl peptidase IV (Sigma) to 0.2 ng/ml solution with 10 mM Tris-HCl (pH 8.0), adding the samples to be detected in, per well 25 μl. […] Experimental Results
# [2] = biological target: humanized recombinant DPP9 (Homo sapiens (Human), UniProt Q86TI2); experiment: Drug selectivity experiment in vitro, DPP9; assay type: biochemical
# [3] = system: normal mice (C57BL/6J); experiment: Oral glucose tolerance test of normal mice; assay type: in vivo, mouse; parameters: AUC0-120 min: unit not given beside the values
# Description: (§1) 2. Experimental method: normal mice, obese mice and diabetic mice were used for studying glucose tolerance tests Experimental process of OGTT (Oral Glucose Tolerance Test): fasting for 6 hours before the test begins, 60 min after drug administration, glucose was administrated by gavage (drug concentration 0.6 mg/ml, administration volume 5 ml/kg) (2 g/kg glucose was administrated to diabetic mice; 2 g/kg glucose was administrated to obese mice; and 5 g/kg glucose was administrated to normal mice), blood glucose values at 0 min, 15 min, 30 min, 45 min, 60 min and 120 min are respectively determined after glucose administration, […]
# [4] = system: obese mice (B6.Cg-Lepob/JNju); experiment: Glucose tolerance test of obese mice; assay type: in vivo, mouse; parameters: AUC0-120 min: unit not given beside the values
# Description: as §1
# [5] = system: diabetic mice (B6.BKS(D)-Leprdb/JNju); experiment: Glucose tolerance test of diabetic mice (Table 5); assay type: in vivo, mouse; parameters: AUC0-120 min: unit not given beside the values
# Description: as §1
# [6] = biological target: hERG potassium channel (Homo sapiens (Human), UniProt Q12809); experiment: hERG toxicity, manual patch clamp in CHO cells stably transfected with hERG; assay type: cell-based
# Description: 1. Test method: testing the effect of the compounds on hERG […] in stable CHO cell lines transfected hERG […] by manual patch clamp method, and then calculating IC50 value of the compounds to hERG. Conventional Patch-Clamp was a technology that has been disclosed, was the most important technical means for studying ion channels and was universally recognized as the “gold standard” for ion channel researches and was the most accurate method for measuring ion channel. It was applicable to study the action mechanism of the effect of compound and the ion channel, and also could be used for toxicity evaluation and structure optimization of candidate drugs in the process of new drugs. In cardiomyocytes, human Ether-a-go-go Related Gene (hERG) coded potassium channel mediates a delayed rectification potassium current (IKr), IKr inhibition was the most important mechanism leading to QT interval prolongation by drugs. hERG could be inhibited by compounds of diversified structures, due to its specific molecular structure. […] The effects of compounds on hERG could be tested and relevant IC50 could be determined by conventional patch-clamp, using CHO cell lines that had been stably transfected hERG potassium channel.
# [7] = biological target: CYP1A2 (Homo sapiens (Human), UniProt P05177); experiment: biochemical; assay type: in vitro ADME
# Description: (§2) 1. Test method: human liver microsomes were used to carry out inhibition activity test of the compounds to CYP enzyme. With the system for incubating human liver microsomes in vitro, the content variation of phenacetin, diclofenac, S-mephenytoin, dextromethorphan and midazolam, which were substrates of human liver microsomes CYP1A2, CYP2C9, CYP2C19, CYP2D6, CYP3A4, were measured simultaneously by cocktail probe drug method (which is a disclosed technology), the effects of TSL-0319 under different concentrations on activity of human liver microsomes CYP1A2, CYP2C9, CYP2C19, CYP2D6, CYP3A4 subtypes are evaluated and relevant IC50 was measured.
# [8] = biological target: CYP2C19 (Homo sapiens (Human), UniProt P33261); experiment: biochemical; assay type: in vitro ADME
# Description: as §2
# [9] = biological target: CYP2C9 (Homo sapiens (Human), UniProt P11712); experiment: biochemical; assay type: in vitro ADME
# Description: as §2
# [10] = biological target: CYP3A4 (Homo sapiens (Human), UniProt P08684); experiment: biochemical; assay type: in vitro ADME
# Description: as §2
# CYP2C9, sequence (P11712 whole entry): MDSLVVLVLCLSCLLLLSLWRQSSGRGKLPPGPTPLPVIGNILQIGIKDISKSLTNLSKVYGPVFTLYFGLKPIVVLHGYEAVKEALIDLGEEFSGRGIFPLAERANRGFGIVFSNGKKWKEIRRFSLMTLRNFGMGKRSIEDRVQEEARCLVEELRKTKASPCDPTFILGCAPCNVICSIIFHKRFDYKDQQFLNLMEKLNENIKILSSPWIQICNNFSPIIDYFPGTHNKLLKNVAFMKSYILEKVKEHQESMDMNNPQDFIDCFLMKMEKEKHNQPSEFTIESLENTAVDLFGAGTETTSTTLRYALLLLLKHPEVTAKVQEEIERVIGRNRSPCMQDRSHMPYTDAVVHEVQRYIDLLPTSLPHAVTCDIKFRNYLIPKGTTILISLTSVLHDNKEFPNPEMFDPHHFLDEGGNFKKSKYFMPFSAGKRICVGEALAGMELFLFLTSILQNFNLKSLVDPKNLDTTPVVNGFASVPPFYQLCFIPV
# CYP1A2, sequence (P05177 whole entry): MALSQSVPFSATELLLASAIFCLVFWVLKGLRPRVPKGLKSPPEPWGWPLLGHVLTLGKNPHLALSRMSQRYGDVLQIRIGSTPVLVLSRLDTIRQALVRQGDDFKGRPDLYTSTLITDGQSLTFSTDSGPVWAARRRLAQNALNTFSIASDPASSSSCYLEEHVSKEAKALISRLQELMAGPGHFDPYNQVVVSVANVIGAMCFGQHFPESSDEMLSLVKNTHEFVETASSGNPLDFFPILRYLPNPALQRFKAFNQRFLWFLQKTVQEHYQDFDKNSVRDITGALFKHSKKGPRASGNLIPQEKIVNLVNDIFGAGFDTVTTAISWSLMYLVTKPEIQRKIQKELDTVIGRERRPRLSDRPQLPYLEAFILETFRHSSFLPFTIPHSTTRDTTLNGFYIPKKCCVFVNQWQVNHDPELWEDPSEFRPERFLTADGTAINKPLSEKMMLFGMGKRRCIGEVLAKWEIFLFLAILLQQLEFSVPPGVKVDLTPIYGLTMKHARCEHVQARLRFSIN
# CYP2C19, sequence (P33261 whole entry): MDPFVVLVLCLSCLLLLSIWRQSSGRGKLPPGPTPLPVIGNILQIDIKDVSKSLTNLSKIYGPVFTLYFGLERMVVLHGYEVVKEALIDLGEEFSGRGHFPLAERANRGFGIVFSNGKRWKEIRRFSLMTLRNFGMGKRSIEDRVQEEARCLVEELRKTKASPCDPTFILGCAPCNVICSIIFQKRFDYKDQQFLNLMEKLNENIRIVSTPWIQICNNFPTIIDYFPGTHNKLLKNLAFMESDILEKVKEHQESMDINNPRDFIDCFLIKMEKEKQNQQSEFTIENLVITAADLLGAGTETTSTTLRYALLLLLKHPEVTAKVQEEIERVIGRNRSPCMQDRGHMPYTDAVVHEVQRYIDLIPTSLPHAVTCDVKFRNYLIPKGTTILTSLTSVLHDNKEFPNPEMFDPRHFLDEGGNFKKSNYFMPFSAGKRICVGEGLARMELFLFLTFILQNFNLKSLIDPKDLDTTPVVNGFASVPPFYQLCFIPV
# humanized recombinant DPP9, sequence (Q86TI2 whole entry): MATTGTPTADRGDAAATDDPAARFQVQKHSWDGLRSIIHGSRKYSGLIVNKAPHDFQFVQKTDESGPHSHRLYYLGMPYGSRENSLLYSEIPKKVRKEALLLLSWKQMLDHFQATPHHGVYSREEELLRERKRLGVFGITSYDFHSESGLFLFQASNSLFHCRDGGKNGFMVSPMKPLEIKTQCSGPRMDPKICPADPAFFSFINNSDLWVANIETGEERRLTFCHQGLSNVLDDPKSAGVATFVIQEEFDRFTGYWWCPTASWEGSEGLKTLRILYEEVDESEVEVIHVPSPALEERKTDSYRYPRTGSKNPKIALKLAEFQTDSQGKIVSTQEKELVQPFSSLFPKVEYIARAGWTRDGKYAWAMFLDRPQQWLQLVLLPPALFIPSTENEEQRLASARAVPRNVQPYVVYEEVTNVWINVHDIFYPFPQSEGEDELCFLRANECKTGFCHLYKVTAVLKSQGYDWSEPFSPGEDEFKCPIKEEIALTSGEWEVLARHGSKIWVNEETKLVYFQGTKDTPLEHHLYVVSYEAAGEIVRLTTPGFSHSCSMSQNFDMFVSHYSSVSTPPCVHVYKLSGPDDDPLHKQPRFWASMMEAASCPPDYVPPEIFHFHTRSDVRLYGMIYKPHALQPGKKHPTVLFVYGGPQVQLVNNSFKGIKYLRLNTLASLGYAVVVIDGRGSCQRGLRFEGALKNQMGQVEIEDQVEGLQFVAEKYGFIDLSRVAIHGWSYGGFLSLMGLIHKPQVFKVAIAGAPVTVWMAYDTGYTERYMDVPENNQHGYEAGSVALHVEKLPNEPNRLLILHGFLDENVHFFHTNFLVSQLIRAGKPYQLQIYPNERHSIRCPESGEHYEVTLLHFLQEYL
# humanized recombinant DPP-IV, sequence (P27487 whole entry): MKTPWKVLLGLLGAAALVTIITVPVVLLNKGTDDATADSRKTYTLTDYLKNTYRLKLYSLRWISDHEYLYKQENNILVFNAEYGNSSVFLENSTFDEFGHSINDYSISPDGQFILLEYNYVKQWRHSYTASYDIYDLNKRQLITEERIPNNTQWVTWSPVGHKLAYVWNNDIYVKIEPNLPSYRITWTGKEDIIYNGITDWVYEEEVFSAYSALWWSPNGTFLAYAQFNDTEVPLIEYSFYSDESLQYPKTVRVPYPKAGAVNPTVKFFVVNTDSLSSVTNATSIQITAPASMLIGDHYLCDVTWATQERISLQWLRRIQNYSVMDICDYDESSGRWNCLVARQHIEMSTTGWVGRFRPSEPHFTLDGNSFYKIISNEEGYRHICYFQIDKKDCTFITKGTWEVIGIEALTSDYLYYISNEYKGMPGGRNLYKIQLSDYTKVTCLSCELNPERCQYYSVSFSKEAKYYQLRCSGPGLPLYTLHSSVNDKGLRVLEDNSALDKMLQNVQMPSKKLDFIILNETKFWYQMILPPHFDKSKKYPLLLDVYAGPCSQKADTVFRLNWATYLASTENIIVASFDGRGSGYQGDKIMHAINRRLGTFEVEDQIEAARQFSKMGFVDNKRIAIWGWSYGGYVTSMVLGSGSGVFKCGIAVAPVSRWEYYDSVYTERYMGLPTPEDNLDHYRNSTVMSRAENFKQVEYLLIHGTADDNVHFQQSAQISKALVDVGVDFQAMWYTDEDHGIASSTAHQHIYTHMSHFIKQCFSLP
# CYP3A4, sequence (P08684 whole entry): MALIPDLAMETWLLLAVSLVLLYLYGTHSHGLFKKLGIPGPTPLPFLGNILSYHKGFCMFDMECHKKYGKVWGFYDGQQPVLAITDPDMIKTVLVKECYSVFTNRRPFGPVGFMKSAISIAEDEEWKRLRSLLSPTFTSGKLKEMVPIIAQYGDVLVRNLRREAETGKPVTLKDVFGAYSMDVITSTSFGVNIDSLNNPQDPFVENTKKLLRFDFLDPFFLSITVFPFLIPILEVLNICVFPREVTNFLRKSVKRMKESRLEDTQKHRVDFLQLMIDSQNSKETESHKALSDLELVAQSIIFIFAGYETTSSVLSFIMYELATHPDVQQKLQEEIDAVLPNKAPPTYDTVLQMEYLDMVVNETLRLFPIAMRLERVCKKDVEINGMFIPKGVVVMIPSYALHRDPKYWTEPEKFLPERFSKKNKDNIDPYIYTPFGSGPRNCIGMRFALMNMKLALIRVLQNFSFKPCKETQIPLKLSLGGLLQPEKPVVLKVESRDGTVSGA
# hERG potassium channel, sequence (Q12809 whole entry): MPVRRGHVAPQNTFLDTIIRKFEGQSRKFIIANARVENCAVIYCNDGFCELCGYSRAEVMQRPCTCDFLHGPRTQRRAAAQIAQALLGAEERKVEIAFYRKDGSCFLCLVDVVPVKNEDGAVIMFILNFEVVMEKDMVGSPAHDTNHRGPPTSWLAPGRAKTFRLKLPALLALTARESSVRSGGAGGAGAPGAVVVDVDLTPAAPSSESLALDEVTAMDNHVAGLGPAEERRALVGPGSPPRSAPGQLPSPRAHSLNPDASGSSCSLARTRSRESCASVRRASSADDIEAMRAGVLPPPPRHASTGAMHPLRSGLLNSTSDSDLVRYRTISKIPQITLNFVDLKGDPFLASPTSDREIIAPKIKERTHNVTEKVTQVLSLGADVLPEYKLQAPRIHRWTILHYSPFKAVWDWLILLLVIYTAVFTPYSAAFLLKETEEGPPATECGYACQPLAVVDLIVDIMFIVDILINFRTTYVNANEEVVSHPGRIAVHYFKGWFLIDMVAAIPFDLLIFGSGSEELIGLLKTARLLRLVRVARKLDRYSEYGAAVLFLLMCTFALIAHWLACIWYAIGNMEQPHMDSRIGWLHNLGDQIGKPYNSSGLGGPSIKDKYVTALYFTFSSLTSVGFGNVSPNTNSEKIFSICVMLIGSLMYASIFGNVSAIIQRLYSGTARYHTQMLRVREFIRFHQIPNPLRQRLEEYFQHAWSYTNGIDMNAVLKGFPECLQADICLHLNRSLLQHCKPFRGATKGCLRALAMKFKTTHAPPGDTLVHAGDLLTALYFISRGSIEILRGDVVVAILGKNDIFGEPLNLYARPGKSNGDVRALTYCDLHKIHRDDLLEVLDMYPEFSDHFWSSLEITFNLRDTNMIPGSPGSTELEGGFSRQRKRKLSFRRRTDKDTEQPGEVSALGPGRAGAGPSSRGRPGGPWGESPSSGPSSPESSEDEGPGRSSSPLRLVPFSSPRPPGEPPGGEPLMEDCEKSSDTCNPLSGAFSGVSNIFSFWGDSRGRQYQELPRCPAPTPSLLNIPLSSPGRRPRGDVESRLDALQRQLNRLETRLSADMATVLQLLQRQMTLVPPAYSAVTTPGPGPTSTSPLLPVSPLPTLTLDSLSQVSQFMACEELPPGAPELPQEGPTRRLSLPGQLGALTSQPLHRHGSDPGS
structure (smiles),measurement,setting,value
"CC#CCn1c(N2CCC[C@@H](N)C2)nc2c1c(=O)n(Cc1nccnc1C#N)c(=O)n2C [Compound I-3, 1-[(3-cyano-pyrazine-2-yl)methyl]-3-methyl-7-(2-butyne-1-yl)-8-[(R)-3-amino-piperidine-1-yl]-xanthine]",IC50,"[1]; DPP-IV, Table 1, read-out: IC50",0.08 nM
same,IC50,"[1]; Table 2, read-out: DPP4 IC50",0.08 nM
same,DPP-IV activity compared with linagliptin,[1]; in words,better activity than linagliptin
same,IC50,[2],> 100 µM
same,Selectivity (DPP9 column),[2]; DPP9 versus DPP4,> 1250000
same,inhibition effect to DPP9,[2]; in words,no inhibition effect
same,Blood glucose concentration 0 min,"[3]; normal mice C57BL/6J, drug at -60 min (0.6 mg/ml, 5 ml/kg), 5 g/kg glucose at 0 min",8.88* mmol/L
same,hypoglycemic effect,"[3]; normal mice, in words",good hypoglycemic effect
same,Blood glucose concentration 15 min,"[3]; normal mice, 15 min after glucose",14.6*** mmol/L
same,Blood glucose concentration 30 min,"[3]; normal mice, 30 min after glucose",11.0*** mmol/L
same,Blood glucose concentration 45 min,"[3]; normal mice, 45 min after glucose",9.23*** mmol/L
same,Blood glucose concentration 60 min,"[3]; normal mice, 60 min after glucose",9.82*** mmol/L
same,Blood glucose concentration 120 min,"[3]; normal mice, 120 min after glucose",7.58 mmol/L
same,AUC0-120 min,"[3]; normal mice, blood glucose AUC",1185***
same,Blood glucose concentration 0 min,"[4]; obese mice B6.Cg-Lepob/JNju, drug at -60 min (0.6 mg/ml, 5 ml/kg), 2 g/kg glucose at 0 min",10.90 mmol/L
same,hypoglycemic effect,"[4]; obese mice, in words",good hypoglycemic effect
same,Blood glucose concentration 15 min,"[4]; obese mice, 15 min after glucose",32.88 mmol/L
same,Blood glucose concentration 30 min,"[4]; obese mice, 30 min after glucose",25.93 mmol/L
same,Blood glucose concentration 45 min,"[4]; obese mice, 45 min after glucose",17.03** mmol/L
same,Blood glucose concentration 60 min,"[4]; obese mice, 60 min after glucose",13.88** mmol/L
same,Blood glucose concentration 120 min,"[4]; obese mice, 120 min after glucose",9.53* mmol/L
same,AUC0-120 min,"[4]; obese mice, blood glucose AUC",2025*
same,hypoglycemic effect,"[5]; Table 5 mice (diabetic), in words",good hypoglycemic effect
same,Blood glucose concentration 0 min,"[5]; diabetic mice B6.BKS(D)-Leprdb/JNju, drug at -60 min (0.6 mg/ml, 5 ml/kg), 2 g/kg glucose at 0 min",11.84 mmol/L
same,Blood glucose concentration 15 min,"[5]; diabetic mice, 15 min after glucose",32.23 mmol/L
same,Blood glucose concentration 30 min,"[5]; diabetic mice, 30 min after glucose",22.80* mmol/L
same,Blood glucose concentration 45 min,"[5]; diabetic mice, 45 min after glucose",15.70*** mmol/L
same,Blood glucose concentration 60 min,"[5]; diabetic mice, 60 min after glucose",13.80*** mmol/L
same,Blood glucose concentration 120 min,"[5]; diabetic mice, 120 min after glucose",8.75** mmol/L
same,AUC0-120 min,"[5]; diabetic mice, blood glucose AUC",1930**
same,inhibition rate to hERG,[6]; 1 μM concentration,0%
same,IC50,"[6]; manual patch clamp, CHO cells",79.8 µM
same,IC50,[7],> 50 µM
same,inhibition at 0.05 µM,"[7]; human, microsomes",0%
same,inhibition at 0.15 µM,"[7]; human, microsomes",0%
same,inhibition at 0.5 µM,"[7]; human, microsomes",2.2%
same,inhibition at 1.5 µM,"[7]; human, microsomes",4.2%
same,inhibition at 5 µM,"[7]; human, microsomes",6.6%
same,inhibition at 15 µM,"[7]; human, microsomes",20.8%
same,inhibition at 50 µM,"[7]; human, microsomes",41.8%
same,IC50,[8],> 50 µM
same,inhibition at 0.05 µM,"[8]; human, microsomes",0%
same,inhibition at 1.5 µM,"[8]; human, microsomes",3.3%
same,inhibition at 5 µM,"[8]; human, microsomes",8.2%
same,inhibition at 15 µM,"[8]; human, microsomes",14%
same,inhibition at 50 µM,"[8]; human, microsomes",2.9%
same,IC50,[9],> 50 µM
same,inhibition at 0.05 µM,"[9]; human, microsomes",0%
same,inhibition at 0.15 µM,"[9]; human, microsomes",0%
same,inhibition at 0.5 µM,"[9]; human, microsomes",3.2%
same,inhibition at 1.5 µM,"[9]; human, microsomes",5.7%
same,inhibition at 5 µM,"[9]; human, microsomes",10.5%
same,inhibition at 15 µM,"[9]; human, microsomes",12.1%
same,inhibition at 50 µM,"[9]; human, microsomes",13.9%
same,IC50,[10],> 50 µM
same,inhibition at 0.05 µM,"[10]; human, microsomes",0%
same,inhibition at 0.15 µM,"[10]; human, microsomes",0%
same,inhibition at 0.5 µM,"[10]; human, microsomes",4%
same,inhibition at 1.5 µM,"[10]; human, microsomes",4.4%
same,inhibition at 5 µM,"[10]; human, microsomes",8.7%
same,inhibition at 15 µM,"[10]; human, microsomes",17.9%
same,inhibition at 50 µM,"[10]; human, microsomes",44.6%
